Results: patent publication US11530237B2, “Compositions and methods for treating CNS disorders” (Sage Therapeutics, Inc., priority 2014, dated 2022)

Experiments:
α1β2γ2 GABAA receptors = α1β2γ2 GABAA receptors (Homo sapiens (Human), UniProt P14867+P47870); assay: Patch clamp electrophysiology (QPatch) of recombinant α1β2γ2 GABAA receptors in LTK cells; assay type: cell-based; conditions: 10 μM test article, GABA EC20 = 2 μM; for Emax at 10 µM: read-out: GABA (α1β2γ2) Qpatch in Ltk, % efficacy at 10 μM
Protocol: (§1) Cellular electrophysiology is used to measure the pharmacological properties of our GABAA receptor modulators in heterologous cell systems. Each compound is tested for its ability to affect GABA mediated currents at a suhmaximal agonist dose (GABA EC20=2 μM). LTK cells are stably transfected with the α1β2γ2 subunits of the GABA receptor and CHO cells are transiently transfected with the α4β3δ subunits via the Lipofecatamine method. Cells were passaged at a confluence of about 50-80% and then seeded onto 35 mm sterile culture dishes containing 2 ml culture complete medium without antibiotics or antimycotics. Confluent clusters of cells are electrically coupled (Pritchett et al., Science, 1988, 242, 1306-1308). Because responses in distant cells are not adequately voltage clamped and because of uncertainties about the extent of coupling (Verdoom et al., Neuron 1990, 4, 919-928), cells were cultivated at a density that enables the recording of single cells (without visible connections to other cells).
(§2) Whole cell currents were measured with HEKA EPC-10 amplifiers using PatchMaster software or by using the high throughput QPatch platform (Sophion). Bath solution for all experiments contained (in mM): NaCl 137 mM, KCl 4 mM, CaCl2 1.8 mM, MgCl2 1 mM, HEPES 10 mM, D-Glucose 10 mM, pH (NaOH) 7.4. In some cases 0.005% cremophor was also added. Intracellular (pipette) solution contained: KCl 130 mM, MgCl2 1 mM, Mg-ATP 5 mM, HEPES 10 mM, EGTA 5 mM, pH 7.2. During experiments, cells and solutions were maintained at room temperature (19° C.-30° C.). For manual patch clamp recordings, cell culture dishes were placed on the dish holder of the microscope and continuously perfused (1 ml/min) with bath solution. After formation of a Gigaohm seal between the patch electrodes and the cell (-ipette resistance range: 2.5 MΩ-6.0 MΩ; seal resistance range:>1 GΩ) the cell membrane across the pipette tip was ruptured to assure electrical access to the cell interior (whole-cell patch-configuration). For experiments using the QPatch system, cells were transferred as suspension to the QPatch system in the bath solution and automated whole cell recordings were performed.
(§3) Cells were voltage clamped at a holding potential of −80 mV. For the analysis of test articles, GABA receptors were stimulated by 2 μM GABA after sequential pre-incubation of increasing concentrations of the test article. Pre-incubation duration was 30 s and the duration of the GABA stimulus was 2s. Test articles were dissolved in DMSO to form stock solutions (10 mM). Test articles were diluted to 0.01, 0.1, 1, and 10 μM in bath solution. All concentrations of test articles were tested on each cell. The relative percentage potentiation was defined as the peak amplitude in response to GABA EC20 in the presence of the test article divided by the peak amplitude in response to GABA EC20 alone, multiplied by 100. For Table 2. GABAA receptors α1β2γ2 and α4β3δ% efficacy: “A” 10-100, “B”>100-500, “C”>500; D indicates the data is not available or has not been determined.

α4β3δ GABAA receptors = α4β3δ GABAA receptors (Homo sapiens (Human), UniProt P28472+P48169); assay: Patch clamp electrophysiology (manual patch) of recombinant α4β3δ GABAA receptors in CHO cells; assay type: cell-based; conditions: 10 μM test article, GABA EC20 = 2 μM, read-out: GABA (α4β3δ) Manual patch in CHO, % efficacy at 10 μM
Protocol: as §1, §2, §3

PTZ-treated mice = assay: Acute PTZ method (pentylenetetrazol-induced seizure assay); assay type: in vivo; conditions: Mus musculus, lowest dose with significant effect on latency to tonic seizures, PO, read-out: Anticonvulsive Effect Dose (minimal effective anticonvulsant dose)
Protocol: The anticonvulsant effect of test compounds were assessed in a pentylenetetazol-induced seizure assay in mice similar to methods described in Giardina & Gasior (Curr Protoc Pharmacol. 2009). Male CD-1 mice were housed in groups of five under controlled conditions (temperature of 22±2° C. and 12:12 light-dark cycle, lights on at 8:00 am) and water and food were available ad libitum. The mice were housed for 1 week prior to behavioral testing, at which time they weighed 25-35 g. Pentylenetetrazol (PTZ, Sigma) was dissolved in sterile 0.9% saline at a concentration of 12 mg/mL concentration for subcutaneous administration. Test compounds were formulated and administered via oral gavage or intraperitoneal injection at a predetermined time-point (typically 30 or 60 minutes) prior to PTZ injection. All solutions were made fresh and given in a volume corresponding to 10 ml/kg body weight.
Mice were acclimated to the test room for at least 30 min before compound administration. Mice were randomized into at least four test groups (vehicle and at least three doses of the test compound) with 10 mice per group. […] Following the drug pretreatment time the mice were injected s.c. with PTZ (120 mg/kg). Immediately following the PTZ injection, mice were individually placed into observation chambers (25×15×15 cm) and a three-channel timer was started. Each mouse was continuously observed for 30 min and the following behaviors were recorded by observers blinded to the treatments: 1) latency to clonic convulsions that persist for 3 sec and followed by an absence of righting reflex 2) latency to tonic convulsions, characterized by the rigid extension of all four limbs that exceeded a 90 degree angle with the body 3) latency to death 4) number of clonic and tonic convulsions. Data are presented as mean±S.E.M and one-way ‘nalysis of vari’nce with Dunnett's or Bonferroni's post-hoc test was used to detect significant differences in latency and number between the vehicle and dose group, p values<0.05 were regarded as statistically significant.

[1] = target: [35S]-TBPS binding, rat brain cortical membranes; assay: Steroid inhibition of TBPS binding ([35S]-TBPS radioligand displacement); conditions: 3 nM [35S]-TBPS, 5 μM GABA
Protocol: TBPS binding assays using rat brain cortical membranes in the presence of 5 μM GABA has been described (Gee et al, J. Pharmacol. Exp. Then 1987, 241, 346-353; Hawkinson et al, Mol. Pharmacol. 1994, 46, 977-985; Lewin, A. H et al., Mol. Pharmacol. 1989, 35, 189-194).
Briefly, cortices are rapidly removed following decapitation of carbon dioxide-anesthetized Sprague-Dawley rats (200-250 g). The cortices are homogenized in 10 volumes of […] using a glass/teflon homogenizer and centrifuged at 1500×g for 10 min at 4° C. The resultant supernatants are centrifuged at 10,000×g for 20 min at 4° C. to obtain the P2 pellets. The P2 pellets are resuspended in 200 mM NaCl/50 mM Na—K phosphate pH 7.4 buffer and centrifuged at 10,000×g for 10 min at 4° C. This washing procedure is repeated twice and the pellets are resuspended in 10 volumes of buffer. Aliquots (100 μL) of the membrane suspensions are incubated with 3 nM [^35S]-TBPS and 5 μL aliquots of test drug dissolved in dimethyl sulfoxide (DMSO) (final 0.5%) in the presence of 5 μM GABA. The incubation is brought to a final volume of 1.0 mL with buffer. […] Following a 90 min incubation at room temp, the assays are terminated by filtration through glass fiber filters (Schleicher and Schuell No. 32) using a cell harvester (Braudel) and rinsed three times with ice-cold buffer. Filter bound radioactivity is measured by liquid scintillation spectrometry. Non-linear curve fitting of the overall data for each drug averaged for each concentration is done using Prism (GraphPad).
Various compounds are or can be screened to determine their potential as modulators of [^35S]-TBPS binding in vitro. These assays are or can be performed in accordance with the above discussed procedures.

## CO[C@H]1C[C@@]2(C)[C@@H](CC[C@@H]3[C@@H]2CC[C@]2(C)[C@@H](C(=O)Cn4nccn4)CC[C@@H]32)C[C@@H]1O [Compound 2]
α1β2γ2 GABAA receptors
  Emax at 10 µM: 100 to 500%
α4β3δ GABAA receptors
  Emax at 10 µM: 100 to 500%

## C[C@@]1(O)CC[C@@]2(C)[C@H](CC[C@@H]3[C@@H]2CC[C@]2(C)[C@@H](C(=O)Cn4ccc(C(F)(F)F)n4)CC[C@@H]32)C1 [Compound 19]
PTZ-treated mice
  minimal effective dose: ≤ 1 mg/kg

## C[C@@]1(O)CC[C@@]2(C)[C@H](CC[C@@H]3[C@@H]2CC[C@]2(C)[C@@H](C(=O)Cn4nc5cc(F)cc(F)c5n4)CC[C@@H]32)C1 [Compound 28]
PTZ-treated mice
  minimal effective dose: ≤ 1 mg/kg

## Cc1nnnn1CC(=O)[C@H]1CC[C@H]2[C@@H]3CC[C@@H]4C[C@](C)(O)CC[C@]4(C)[C@H]3CC[C@]12C [Compound 31]
PTZ-treated mice
  minimal effective dose: ≥ 5 mg/kg

## Cc1nnn(CC(=O)[C@@H]2CC[C@H]3[C@@H]4CC[C@@H]5C[C@](C)(O)CC[C@]5(C)[C@H]4CC[C@]23C)n1 [Compound 32]
PTZ-treated mice
  minimal effective dose: ≤ 1 mg/kg

## C[C@@]1(O)CC[C@@]2(C)[C@@H](CC[C@@H]3[C@@H]2CC[C@]2(C)[C@@H](C(=O)Cn4nc5ccc(F)c(F)c5n4)CC[C@@H]32)C1 [Compound 108, 2-(4,5-difluoro-2H-benzo[d][1,2,3]triazol-2-yl)-1-((3R,5S,8R,9S,10S,13S,14S,17S)-3-hydroxy-3,10,13-trimethylhexadecahydro-1H-cyclopenta[a]phenanthren-17-yl)ethanone]
[1]
  IC50: 0.01 to 0.05 µM
α1β2γ2 GABAA receptors
  Emax at 10 µM: 100 to 500%

## C[C@@]1(O)CC[C@@]2(C)[C@@H](CC[C@@H]3[C@@H]2CC[C@]2(C)[C@@H](C(=O)Cn4nnc5ccc(Cl)c(F)c54)CC[C@@H]32)C1 [Compound 113]
[1]
  IC50: 0.01 to 0.05 µM
α1β2γ2 GABAA receptors
  GABA (α1β2γ2) Qpatch in Ltk, % efficacy at 10 μM: B (>100-500)

## C[C@@]1(O)CC[C@@]2(C)[C@@H](CC[C@@H]3[C@@H]2CC[C@]2(C)[C@@H](C(=O)Cn4ncnn4)CC[C@@H]32)C1 [Compound 118]
α1β2γ2 GABAA receptors
  Emax at 10 µM: 100 to 500%
α4β3δ GABAA receptors
  Emax at 10 µM: > 500%

## C[C@@]1(O)CC[C@@]2(C)[C@@H](CC[C@@H]3[C@@H]2CC[C@]2(C)[C@@H](C(=O)Cn4ccc(C#N)n4)CC[C@@H]32)C1 [Compound 121]
α1β2γ2 GABAA receptors
  Emax at 10 µM: > 500%
α4β3δ GABAA receptors
  Emax at 10 µM: > 500%

## C[C@@]1(O)CC[C@@]2(C)[C@@H](CC[C@@H]3[C@@H]2CC[C@]2(C)[C@@H](C(=O)Cn4nnc5cc(F)c(F)cc54)CC[C@@H]32)C1 [Compound 124]
α1β2γ2 GABAA receptors
  Emax at 10 µM: 100 to 500%
α4β3δ GABAA receptors
  Emax at 10 µM: > 500%

## C[C@@]1(O)CC[C@@]2(C)[C@H](CC[C@@H]3[C@@H]2CC[C@]2(C)[C@@H](C(=O)Cn4cc(Cl)cn4)CC[C@@H]32)C1 [Compound 133]
α1β2γ2 GABAA receptors
  Emax at 10 µM: 100 to 500%
α4β3δ GABAA receptors
  Emax at 10 µM: > 500%

## C[C@@]1(O)CC[C@@]2(C)[C@H](CC[C@@H]3[C@@H]2CC[C@]2(C)[C@@H](C(=O)Cn4cc(C(F)(F)F)cn4)CC[C@@H]32)C1 [Compound 134]
α1β2γ2 GABAA receptors
  Emax at 10 µM: > 500%
α4β3δ GABAA receptors
  Emax at 10 µM: > 500%

## C[C@@]1(O)CC[C@@]2(C)[C@@H](CC[C@@H]3[C@@H]2CC[C@]2(C)[C@@H](C(=O)Cn4cnc(C#N)c4)CC[C@@H]32)C1 [Compound 138]
[1]
  IC50: 0.1 to 0.5 µM
α1β2γ2 GABAA receptors
  GABA (α1β2γ2) Qpatch in Ltk, % efficacy at 10 μM: C (>500)

## COC[C@@]1(O)CC[C@@]2(C)[C@@H](CC[C@@H]3[C@@H]2CC[C@]2(C)[C@@H](C(=O)Cn4cc(C#N)cn4)CC[C@@H]32)C1 [Compound 142]
α1β2γ2 GABAA receptors
  Emax at 10 µM: > 500%
α4β3δ GABAA receptors
  Emax at 10 µM: > 500%

## C[C@@]1(O)CC[C@@]2(C)[C@H](CC[C@@H]3[C@@H]2CC[C@]2(C)[C@@H](C(=O)Cn4ccnc4C#N)CC[C@@H]32)C1 [Compound 143]
α1β2γ2 GABAA receptors
  Emax at 10 µM: > 500%
α4β3δ GABAA receptors
  Emax at 10 µM: > 500%

## C[C@@]1(O)CC[C@@]2(C)[C@@H](CC[C@@H]3[C@@H]2CC[C@]2(C)[C@@H](C(=O)Cn4cc(N)cn4)CC[C@@H]32)C1 [Compound 152, 2-(4-amino-1H-pyrazol-1-yl)-1-((3R,5S,8R,9S,10S,13S,14S,17S)-3-hydroxy-3,10,13-trimethylhexadecahydro-1H-cyclopenta[a]phenanthren-17-yl)ethanone]
[1]
  IC50: 0.1 to 0.5 µM
α1β2γ2 GABAA receptors
  Emax at 10 µM: 100 to 500%

## CC(=O)Nc1cnn(CC(=O)[C@H]2CC[C@H]3[C@@H]4CC[C@H]5C[C@](C)(O)CC[C@]5(C)[C@H]4CC[C@]23C)c1 [Compound 153, N-(1-(2-((3R,5S,8R,9S,10S,13S,14S,17S)-3-hydroxy-3,10,13-trimethylhexadecahydro-1H-cyclopenta[a]phenanthren-17-yl)-2-oxoethyl)-1H-pyrazol-4-yl)acetamide]
[1]
  IC50: 0.1 to 0.5 µM
α1β2γ2 GABAA receptors
  Emax at 10 µM: 100 to 500%

## C[C@@]1(O)CC[C@@]2(C)[C@@H](CC[C@@H]3[C@@H]2CC[C@]2(C)[C@@H](C(=O)Cn4nc5cc(F)cc(F)c5n4)CC[C@@H]32)C1 [Compound 234]
α4β3δ GABAA receptors
  Emax at 10 µM: 100 to 500%

## C[C@@]1(O)CC[C@@]2(C)[C@@H](CC[C@@H]3[C@@H]2CC[C@]2(C)[C@@H](C(=O)Cn4nc5ccc(F)cc5n4)CC[C@@H]32)C1 [Compound 246]
[1]
  IC50: < 0.01 µM

## CSc1ccc2nnn(CC(=O)[C@H]3CC[C@H]4[C@@H]5CC[C@H]6C[C@](C)(O)CC[C@]6(C)[C@H]5CC[C@]34C)c2c1 [Compound 248]
[1]
  IC50: < 0.01 µM

## C[C@@]1(O)CC[C@@]2(C)[C@@H](CC[C@@H]3[C@@H]2CC[C@]2(C)[C@@H](C(=O)Cc4cccc(F)c4)CC[C@@H]32)C1 [Compound 257]
[1]
  IC50: 0.1 to 0.5 µM
